From ChEMBL document CHEMBL1122370 (J Med Chem, 1983)
Several values for one entry are separate records, joined by “and”; a condition that tells them apart may be missing. Identical values can stand only once.

How the values were obtained:
[1] = tested on: Mus musculus; test: Average weight of the mouse after treating with 80 mg/kg dose for 1 day.; type: functional; set-up: unit not given here
[2] = tested on: Mus musculus; test: Average weight of the mouse after treating with 40 mg/kg dose for 1 day.; type: functional; set-up: unit not given here
[3] = tested on: L1210; test: In vivo antitumor activity against L1210 leukemia in 5 mice measured as median survival range at 20 mg/kg; Value ranges from(12-14); type: functional, Mus musculus
[4] = tested on: L1210; test: In vivo antitumor activity against L1210 leukemia in 5 mice measured as Increased life span at 20 mg/kg.; type: functional; conditions: Mus musculus
[5] = tested on: Mus musculus; test: Average weight of the mouse after treating with 20 mg/kg dose for 1 day.; type: functional; set-up: unit not given here
[6] = tested on: L1210; test: In vivo antitumor activity against L1210 leukemia in 5 mice measured as Increased life span at 40 mg/kg.; type: functional; conditions: Mus musculus
[7] = tested on: L1210; test: In vivo antitumor activity against L1210 leukemia in 5 mice measured as Increased life span.; type: functional, Mus musculus
[8] = tested on: Mus musculus; test: Average weight of the mouse after treating with 40 mg/kg dose for 7 days.; type: functional; set-up: unit not given beside the values
[9] = tested on: L1210; test: In vivo antitumor activity against L1210 leukemia in 19 mice measured as T/C value; T/C = 19/9; type: functional, Mus musculus
[10] = tested on: L1210; test: In vivo antitumor activity against L1210 leukemia in 5 mice measured as median survival range at 80 mg/kg; Value ranges from(13-20).; type: functional, Mus musculus
[11] = tested on: Mus musculus; test: (§1) Average weight of the mouse after treating with 20 mg/kg dose for 7 days.; type: functional; set-up: unit not given beside the values
[12] = tested on: L1210; test: In vivo antitumor activity against L1210 leukemia in 5 mice measured as median survival range at 40 mg/kg; Value ranges from(14-17); set-up: dose 40 mg/kg; conditions: mouse
[13] = tested on: Mus musculus; test: Average weight of the mouse after treating with 80 mg/kg dose for 7 days.; type: functional; set-up: unit not given beside the values
[14] = tested on: L1210; test: In vivo antitumor activity against L1210 leukemia in 5 mice measured as median survival range at 20 mg/kg; Value ranges from (14-23); type: functional, Mus musculus
[15] = tested on: Mus musculus; test: Average weight of the mouse after treating with 10 mg/kg dose for 1 day.; type: functional; set-up: unit not given here
[16] = tested on: L1210; test: In vivo antitumor activity against L1210 leukemia in 5 mice measured as T/C values; T/C = 23/9; type: functional, Mus musculus
[17] = tested on: L1210; test: In vivo antitumor activity against L1210 leukemia in 17 mice measured as T/C values; T/C = 17/9; type: functional, Mus musculus
[18] = tested on: Mus musculus; test: Average weight of the mouse after treating with 10 mg/kg dose for 7 day.; type: functional
[19] = tested on: L1210; test: In vivo antitumor activity against L1210 leukemia in 5 mice measured as Increased life span at 10 mg/kg.; type: functional; conditions: Mus musculus
[20] = tested on: Mus musculus; test: Average weight of the mouse after treating with 40 mg/kg dose for 7 day.; type: functional
[21] = tested on: L1210; test: In vivo antitumor activity against L1210 leukemia in 5 mice measured as median survival range at 40 mg/kg; Value ranges from(15-23); type: functional, Mus musculus
[22] = tested on: Mus musculus; test: as §1; type: functional
[23] = tested on: L1210; test: In vivo antitumor activity against L1210 leukemia in 5 mice measured as median survival range at 10 mg/kg; Value ranges from (13-18).; type: functional, Mus musculus
[24] = tested on: Mus musculus; test: Average weight of the mouse after treating with 30 mg/kg dose for 7 days.; type: functional
[25] = tested on: L1210; test: In vivo anti tumor activity against L1210 leukemia in 19 mice measured as median survival range at 60 mg/kg; Value ranges from(9-28); type: functional, Mus musculus
[26] = tested on: L1210; test: In vivo anti tumor activity against L1210 leukemia in 23 mice measured as median survival range at 30 mg/kg; Value ranges from(14-23).; type: functional, Mus musculus
[27] = tested on: Mus musculus; test: Average weight of the mouse after treating with 15 mg/kg dose for 7 days.; type: functional
[28] = tested on: L1210; test: (§2) In vivo antitumor activity against L1210 leukemia in 19 mice measured as Increased life span.; type: functional, Mus musculus
[29] = tested on: L1210; test: In vivo antitumor activity against L1210 leukemia in 19 mice measured as median survival range at 15 mg/kg; Value ranges from(13-22); type: functional, Mus musculus
[30] = tested on: L1210; test: In vivo antitumor activity against L1210 leukemia in 18 mice measured as T/C values(days); T/C = 18/9; type: functional, Mus musculus
[31] = tested on: L1210; test: In vivo antitumor activity against L1210 leukemia in 17 mice measured as T/C values(days); T/C = 17/9; type: functional, Mus musculus
[32] = tested on: L1210; test: In vivo antitumor activity against L1210 leukemia in 23 mice measured as Increased life span.; type: functional, Mus musculus
[33] = tested on: L1210; test: as §2; type: functional, Mus musculus; remark: listed apart in the source
[34] = tested on: L1210; test: In vivo antitumor activity against L1210 leukemia in 16 mice measured as T/C values(days); T/C = 16/9; type: functional, Mus musculus
[35] = tested on: Mus musculus; test: Average weight of the mouse after treating with 60 mg/kg dose for 7 days.; type: functional
[36] = tested on: Mus musculus; test: Average weight change in mouse after treating with 20 mg/kg dose for 7 days.; type: functional; set-up: unit not given beside the values; conditions: 20 mg/kg
[37] = tested on: L1210; test: In vivo antitumor activity against L1210 leukemia in 14 mice measured as T/C values; T/C = 14/9; type: functional, Mus musculus
[38] = tested on: L1210; test: In vivo antitumor activity against L1210 leukemia in 5 mice measured as median survival range at 10 mg/kg; Value ranges from (10-15); type: functional, Mus musculus
[39] = tested on: L1210; test: In vivo antitumor activity against L1210 leukemia in 12 mice measured as T/C values(days); T/C = 12/9; type: functional, Mus musculus
[40] = tested on: L1210; test: In vivo antitumor activity against L1210 leukemia in 5 mice measured as median survival range at 20 mg/kg; Value ranges from (14-18); type: functional, Mus musculus
[41] = tested on: L1210; test: In vivo antitumor activity against L1210 leukemia in 5 mice measured as median survival range at 40 mg/kg; Value ranges from(12-18); type: functional, Mus musculus
[42] = tested on: L1210; test: In vivo antitumor activity against L1210 leukemia in 19 mice measured as T/C values(days); T/C = 19/9; type: functional, Mus musculus
[43] = tested on: L1210; test: In vivo antitumor activity against L1210 leukemia in 13 mice measured as T/C values(days); T/C = 13/9; type: functional, Mus musculus
[44] = tested on: L1210; test: In vivo antitumor activity against L1210 leukemia in 5 mice measured as median survival range at 80 mg/kg; Value ranges from(12-23).; type: functional, Mus musculus
[45] = tested on: L1210; test: In vivo antitumor activity against L1210 leukemia in 5 mice measured as Increased life span at 80 mg/kg.; type: functional; conditions: Mus musculus

Q: What does the source list for `CCCCOC(=O)C(CCC(=O)OCc1cccnc1)NC(=O)c1ccc(N(C)Cc2cnc3nc(N)nc(N)c3n2)cc1` (configuration not stated)?
A: Average weight [1]: 22; Average weight [2]: 21.2; Range [3]: 14; ILS at 20 mg/kg [4]: 50%; Average weight [5]: 21.1; ILS at 40 mg/kg [6]: 75%; ILS [7]: 137%; Weight change [8]: 1.7; T/C [9]: 9; Range [10]: 20; Weight change [11]: 2.4; Range [12]: 17; Weight change [13]: 0.3

Q: Which results are given for `Cc1ccc(C)c(COC(=O)CCC(NC(=O)c2ccc(N(C)Cc3cnc4nc(N)nc(N)c4n3)cc2)C(=O)OCc2cc(C)ccc2C)c1` (configuration not stated)?
A: Range [14]: 23; Average weight [15]: 23; Average weight [2]: 20.7; T/C [16]: 9; T/C [17]: 9; ILS at 20 mg/kg [4]: 111%; Average weight [5]: 22; Weight change [18]: 1.6; ILS at 40 mg/kg [6]: 155%; ILS at 10 mg/kg [19]: 88%; Weight change [20]: 0.7; Range [21]: 23; Weight change [22]: 0.7; Range [23]: 18

Q: Which Weight change [24] does the source give for `CN(Cc1cnc2nc(N)nc(N)c2n1)c1ccc(C(=O)N[C@@H](CCC(=O)O)C(=O)O)cc1` [METHOTREXATE] here?
A: 0.6

Q: And the Range [25]?
A: 28

Q: And the Range [26]?
A: 23

Q: What about the Weight change [27] of the same compound?
A: 2.1

Q: What about the ILS [28] of the same compound?
A: 77%

Q: What about the Range [29] of the same compound?
A: 22

Q: What about the T/C [30] of the same compound?
A: 9

Q: And the T/C [31]?
A: 9

Q: What about the ILS [32] of the same compound?
A: 88%

Q: And the ILS [33]?
A: 100%

Q: And the T/C [34]?
A: 9

Q: And the Weight change [35]?
A: 1.3

Q: Which Weight change [36] does the source give for `CCCCCOC(=O)CCC(NC(=O)c1ccc(N(C)Cc2cnc3nc(N)nc(N)c3n2)cc1)C(=O)OCCCCC` (configuration not stated) here?
A: 0.6 and 0.4

Q: And the ILS at 20 mg/kg [4]?
A: 55%

Q: And the Average weight ([5]; 20 mg/kg)?
A: 21.5 and 20.8

Q: What about the T/C [37] of the same compound?
A: 14

Q: What about the ILS at 10 mg/kg [19] of the same compound?
A: 33%

Q: What about the Range [38] of the same compound?
A: 15

Q: And the T/C [39]?
A: 12

Q: And the Range [40]?
A: 18

Q: Which results are given for `CC(C)COC(=O)CCC(NC(=O)c1cc(Cl)c(N(C)Cc2cnc3nc(N)nc(N)c3n2)c(Cl)c1)C(=O)OCC(C)C` (configuration not stated)?
A: Average weight [1]: 19.8; Range [41]: 18; Average weight [2]: 21.4; T/C [42]: 9; T/C [43]: 9; ILS at 40 mg/kg [6]: 44%; Weight change [8]: 0.1; Range [44]: 23; Weight change [13]: 1.3; ILS at 80 mg/kg [45]: 111%
